# Entries after “also recorded” stand apart in the source; their conditions may differ. Counter-ions that a name gives are not always drawn.
# Tests used:
# [1] = cited from earlier work
# [2] = system: LPS-induced pulmonary neutrophilia in rats; assay: In Vivo Assay 1: LPS induced pulmonary neutrophilia in rats, intratracheally administered PDE4 inhibitors; parameters: species or system rat; details: for percentage mean inhibition of LPS-induced pulmonary neutrophilia / arithmetic mean percentage inhibition of LPS-induced pulmonary neutrophilia: rat, about 2 hours prior to LPS; for percentage mean inhibition of LPS-induced pulmonary neutrophilia: i.t. aqueous solution; for arithmetic mean percentage inhibition of LPS-induced pulmonary neutrophilia: i.t. dry powder blended in lactose; for duration of action: preliminary tests
# From the text: This assay is an animal model of acute inflammation in the lung—specifically neutrophilia induced by lipopolysaccharide (LPS)—and allows the study of putative inhibition of such neutrophilia (anti-inflammatory effect) by an intratracheally (i.t.) administered PDE4 inhibitor (“drug”). The PDE4 inhibitors are suitably in dry powder, aqueous solution or aqueous suspension form. I.t. administration is one model of inhaled administration, allowing topical delivery to the lung.
# Animals: Male CD (Sprague Dawley Derived) rats supplied by Charles River, United Kingdom are housed in groups of 5 rats per cage, acclimatised after delivery for at least 7 days with bedding/nesting material regularly changed, fed on SDS diet R1 pelleted food given ad lib, and supplied with daily-changed pasteurised animal grade drinking water.
# Device for dry powder administration: For these studies, a Penn Century DP-4 dry powder intratracheal (i.t.) delivery device (insufflator) is used for administration of a dry powder blend of vehicle (inhalation grade lactose) and the PDE4 inhibitor compound or salt of the invention (“drug”). Each device is numbered and the sample loading chamber is unscrewed from the main device and weighed. The i.t. delivery needle is also weighed. The drug+lactose blend or inhalation grade lactose (vehicle control) is then added to the sample chamber and this is then re-weighed. The sample chamber is fitted back on to the main device to prevent any drug being lost. This procedure is repeated for all of the Penn century devices to be used in the study (one separate device for each animal). After dosing to the animals, the sample chambers and needles are re-weighed in order to determine the amount of sample that was expelled from the device.
# Device for aqueous solution administration: A blunt dosing needle, whose forward end is slightly angled to the needle axis, is used, with a flexible plastic portex canula inserted into the needle. The portex cannula is inserted into the lumen of the blunt stainless steel dosing needle and this is carefully inserted into the back of the animal's throat and into the trachea via the larynx. A known volume (200 microliters) of the vehicle (0.2% Tween 80™ in saline) or of the solution (or suspension) drug composition is administered into the trachea using a plastic syringe that is attached to the portex cannula and dosing needle. A new internal cannula is used for each different drug group. After dosing, the needle is removed from the trachea and the animals are removed from the table and continually observed until they recover from the effects of anaesthesia. The animals are then returned to the holding cages and given free access to food and water, and are observed and any unusual behavioural changes noted. (Aqueous suspensions can be handled generally similarly.)
# Drugs and Materials: Lipopolysaccharide (LPS) (Serotype:0127:B8, e.g. from Sigma, UK; e.g. L3129 prepared by phenol extraction) is dissolved in phosphate-buffered saline (PBS).
# For dry powder, aqueous solution or aqueous suspension administration, PDE4 inhibitors are preferably used in size-reduced (e.g. micronised) form, for example according to the Micronisation Example(s) disclosed herein.
# For dry powder administration of the drug, the PDE4 inhibitor compound or salt of the invention (drug) is administered as a dry powder blended with inhalation-grade (respiratory-grade) lactose, i.e. as a dry powder composition. The target quantity of dry powder composition administered i.t. to each animal is 2 mg. This remains constant throughout the studies. To achieve different doses, blends of the drug dry powder and lactose, containing different concentrations of the PDE4 inhibitor compound or salt of the invention (drug), are prepared. […]
# [3] = system: LPS-induced nasal neutrophilia in rats; assay: In vivo assay 2: LPS induced nasal neutrophilia in rats, intranasally administered PDE4 inhibitors; details: rat, i.n. aqueous solution, about 30 minutes prior to LPS
# From the text: This assay is an animal model of acute inflammation in the nose—specifically neutrophilia induced by lipopolysaccharide (LPS)—and allows the study of putative inhibition of such neutrophilia (anti-inflammatory effect) by an intranasally (i.n.) administered PDE4 inhibitor (“drug”). The PDE4 inhibitor is preferably in the form of an aqueous suspension or aqueous solution. Bolus, i.n. administration allows topical delivery to the nose.
# Animals: Male CD rats (Sprague Dawley derived), weighing between 300-350 g are supplied by Charles River, UK and transported to the test site. On arrival at the test site, the animals are housed in groups of 4 or 5 per cage and complete a minimum acclimatisation period of 7 days. The animals are housed in solid bottomed cages using grade 8 sawdust. The bedding and nesting materials are changed 3 times per week. Diet comprises SDS diet R1 pelleted food given ad lib. Pasteurised animal grade drinking water is supplied and changed daily.
# Lipopolysaccharide (Serotype: 0127:B8, e.g. available from Sigma, UK; e.g. L3129 prepared by phenol extraction) is used for all studies and is dissolved in phosphate-buffered saline (PBS).
# Tween 80™ (e.g. available from Sigma e.g. 023K 01575). A mixture of 0.2% Tween 80™ in phosphate buffered saline (PBS) is prepared as vehicle for solution compositions. The Sigma catalogue 2004-2005 and The Handbook of Pharmaceutical Excipients (HPE) 4th edition 2003 pp. 479-483 define Tween 80™ as a brand of polysorbate 80 (according to HPE, polysorbate 80 is also named polyoxyethylene 20 sorbitan monooleate, i.e. having been copolymerised with about 20 moles of ethylene oxide for each mole of sorbitol and/or sorbitol anhydrides used).
# The PDE4 inhibitor compound or salt of the invention (“drug”) is preferably used in size-reduced (e.g. micronised) form, for example according to the Micronisation Example(s) disclosed herein.
# A solution of compound (0.7 mg/ml) is generally prepared by adding 0.2% Tween 80™ in phosphate buffered saline (PBS) to a pre-weighed micronised sample of the drug. The solution composition is sonicated, e.g. for approximately 2 min, and is observed to be a solution (if it is a solution) by visual assessment. A fixed volume of 50 microliters (25 microliters into each nostril) of either the drug-containing solution composition or a saline/Tween 80™ vehicle is administered to all animals. Each animal weighs, on average, 350 g. To achieve a dose of 100 μg/kg (100 ug/kg), each animal receives a total of 35 μg (35 ug) of the drug. The dose volume is 50 microliters (25 microliters to each nostril), and therefore a concentration of 35 μg (ug) per 50 microliters (0.7 mg/ml) is prepared. To achieve lower dose concentrations, serial dilutions are prepared in saline/Tween 80™. […]
# [4] = cited from earlier work; remark: listed apart in the source
# [5] = orally 500 ug once daily for 9 days; daily intranasal allergen provocation (pollen extracts); cited from earlier work
smiles,measurement,setting,value
"COc1ccc(C2CNC(=O)NC2)cc1O[C@H]1C[C@@H]2CC[C@H]1C2 [CP80,633]",inflammatory parameters in atopic dermatitis patients,"[1]; 0.5% ointment, twice daily topical application",reductions of inflammatory parameters
"CCc1nc2c(cnn2CC)c(NC2CCOCC2)c1CNC(=O)c1ccc(NC(=O)CCCCCCCN(C)CCO)cc1 [Example 1A1, N-{[1,6-Diethyl-4-(tetrahydro-2H-pyran-4-ylamino)-1H-pyrazolo[3,4-b]pyridin-5-yl]methyl}-4-({8-[(2-hydroxyethyl)(methyl)amino]octanoyl}amino)benzamide dihydrochloride]",percentage mean inhibition of LPS-induced pulmonary neutrophilia,"[2]; about 10 micrograms/kg, dihydrochloride",about 33%
same,percentage mean inhibition of LPS-induced pulmonary neutrophilia,"[2]; about 30 micrograms/kg, dihydrochloride",about 56%
same,percentage mean inhibition of LPS-induced pulmonary neutrophilia,"[2]; about 100 micrograms/kg, dihydrochloride",about 76%
same,percentage mean inhibition of LPS-induced pulmonary neutrophilia,[2]; about 300 micrograms/kg,about 74%
"CCc1nc2c(cnn2CC)c(NC2CCOCC2)c1CNC(=O)c1ccc(NC(=O)CCCCCCCN(C)CCO)cc1 [Example 1A2, N-{[1,6-diethyl-4-(tetrahydro-2H-pyran-4-ylamino)-1H-pyrazolo[3,4-b]pyridin-5-yl]methyl}-4-({8-[(2-hydroxyethyl)(methyl)amino]octanoyl}amino)benzamide monohydrochloride]",arithmetic mean percentage inhibition of LPS-induced pulmonary neutrophilia,[2]; about 10 micrograms/kg,about 29%
same,arithmetic mean percentage inhibition of LPS-induced pulmonary neutrophilia,[2]; about 30 micrograms/kg,about 44%
same,arithmetic mean percentage inhibition of LPS-induced pulmonary neutrophilia,[2]; about 100 micrograms/kg,about 39%
same,arithmetic mean percentage inhibition of LPS-induced pulmonary neutrophilia,[2]; about 300 micrograms/kg,about 55%
same,percentage inhibition (arithmetic mean) of LPS-induced nasal neutrophilia,[3]; about 1 micrograms/kg,essentially no inhibition
same,percentage inhibition (arithmetic mean) of LPS-induced nasal neutrophilia,[3]; about 3 micrograms/kg,small and non-statistically-significant inhibition
same,percentage inhibition (arithmetic mean) of LPS-induced nasal neutrophilia,[3]; about 10 micrograms/kg,about 62%
same,percentage inhibition (arithmetic mean) of LPS-induced nasal neutrophilia,[3]; about 100 micrograms/kg,about 79%
"CCc1nc2c(cnn2CC)c(NC2CCOCC2)c1CNC(=O)c1ccc(NC(=O)CCCCCCCN(C)CCO)cc1 [Example 1B, N-{[1,6-diethyl-4-(tetrahydro-2H-pyran-4-ylamino)-1H-pyrazolo[3,4-b]pyridin-5-yl]methyl}-4-({8-[(2-hydroxyethyl)(methyl)amino]octanoyl}amino)benzamide]",percentage mean inhibition of LPS-induced pulmonary neutrophilia,[2]; about 10 micrograms/kg,about 29%
same,percentage mean inhibition of LPS-induced pulmonary neutrophilia,[2]; about 30 micrograms/kg,about 75%
same,percentage mean inhibition of LPS-induced pulmonary neutrophilia,[2]; about 100 micrograms/kg,about 59%
"CCc1nc2c(cnn2CC)c(NC2CCOCC2)c1CNC(=O)c1ccc(NC(=O)CCCCCCCN(C)CCO)cc1 [N-{[1,6-diethyl-4-(tetrahydro-2H-pyran-4-ylamino)-1H-pyrazolo[3,4-b]pyridin-5-yl]methyl}-4-({8-[(2-hydroxyethyl)(methyl)amino]octanoyl}amino)benzamide]",duration of action,[2]; after i.t. administration to the rat as a dry powder,4 h
same,duration of action,[2]; after i.t. administration to the rat as an aqueous solution,≥ 2 h
COc1ccc([C@]2(C#N)CC[C@@H](C(=O)O)CC2)cc1OC1CCCC1 [cilomilast],forced expiratory volume in 1s (FEV1) in COPD patients,[4]; 15 mg orally twice daily,appears to improve forced expiratory volume in 1s (FEV1)
same,antiinflammatory effects in COPD patients,"[4]; human, in vivo",appears to have anti-inflammatory effects; also recorded: appears to have antiinflammatory effects
Nc1nc2c([nH]1)c(=O)n(CC1CC1)c(=O)n2CC1CC1 [cipamfylline],effectiveness in the treatment of atopic dermatitis patients,[1]; 0.15% cream versus vehicle and hydrocortisone 17-butyrate (0.1%) cream,"significantly more effective than vehicle, but significantly less effective than hydrocortisone 17-butyrate (0.1%) cream"
O=C(Nc1c(Cl)cncc1Cl)c1ccc(OC(F)F)c(OCC2CC2)c1 [roflumilast],rhinal airflow during the treatment period (compared to placebo),[5],effective in improving rhinal airflow
same,FEV1 in COPD patients,"[4]; human, in vivo",appears to show small improvements in FEV1

# From patent US8003663B2, “Pyrazolo[3,4-b]pyridine compounds, and their use as PDE4 inhibitors” (Glaxo Group Limited, priority 2006, dated 2011)
